Legend:
[1] = target: T1, 15-LO (Glycine max, UniProt P08170); assay: 15-LO catalysed oxidation of the nitro compounds (substrate test); format: biochemical, soybean; conditions: for Substrate for 15-LO: pH 9.0 buffer, UV 234 nm
T1 construct: purchased Sigma Chemical Company
T1 sequence (P08170 1-839): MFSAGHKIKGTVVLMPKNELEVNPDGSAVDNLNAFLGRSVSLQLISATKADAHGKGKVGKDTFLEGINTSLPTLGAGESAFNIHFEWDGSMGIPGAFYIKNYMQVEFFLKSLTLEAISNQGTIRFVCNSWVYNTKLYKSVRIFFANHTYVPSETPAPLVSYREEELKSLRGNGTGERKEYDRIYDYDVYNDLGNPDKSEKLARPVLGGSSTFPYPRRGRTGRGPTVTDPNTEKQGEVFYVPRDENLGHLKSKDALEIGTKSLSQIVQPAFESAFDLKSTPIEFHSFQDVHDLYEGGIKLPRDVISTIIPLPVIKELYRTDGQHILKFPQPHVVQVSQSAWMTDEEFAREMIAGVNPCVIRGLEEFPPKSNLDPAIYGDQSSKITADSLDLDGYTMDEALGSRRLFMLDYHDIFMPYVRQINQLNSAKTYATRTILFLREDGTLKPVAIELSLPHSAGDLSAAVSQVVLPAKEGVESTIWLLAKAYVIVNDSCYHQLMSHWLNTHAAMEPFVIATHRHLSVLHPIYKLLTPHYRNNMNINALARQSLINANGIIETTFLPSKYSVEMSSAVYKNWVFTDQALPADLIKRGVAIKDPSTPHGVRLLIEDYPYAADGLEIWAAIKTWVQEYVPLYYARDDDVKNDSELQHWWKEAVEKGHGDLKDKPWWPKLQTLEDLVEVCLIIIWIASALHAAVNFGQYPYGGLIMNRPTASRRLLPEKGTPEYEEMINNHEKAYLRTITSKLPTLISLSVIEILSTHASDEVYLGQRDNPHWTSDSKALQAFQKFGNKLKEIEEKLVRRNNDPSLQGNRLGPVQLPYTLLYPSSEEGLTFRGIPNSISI
Protocol: (§1) Based on this consideration, 5-LO, 12-LO and 15-LO catalysed oxidation of the nitro compounds (4a, 4b, 6a, 6b, 8a and 8b) was investigated. Each of the nitro compounds was treated with 15-LO in pH 9.0 buffer (or 5-LO in pH 6.3 buffer and 12-LO in pH 7.4 buffer), and the formation of 15-hydroperoxy derivatives (or 5-hydroperoxy or 12-hydroperoxy derivatives) over time was monitored by UV spectroscopy at 234 nm.

[2] = system: Plasmodium falciparum isolates 3D7, FC27, K+; assay: Radiometric (3H-hypoxanthine) assay on asexual blood stages of P. falciparum; format: cell-based
Protocol: Using the radiometric assay^(36), the effects of the Lx compounds were examined for antimalarial activity. The Plasmodium falciparum isolates used were 3D7, FC27, K^1 and K^+. These were maintained in human blood group O^+ erythrocytes essentially as described previously using RPM-1640 (HEPES modification) supplemented with 0.25% D-glucose, 0.2% Tess buffer (Sigma Chemical Co, Lt Louis, Mo.) and 10% heat inactivated (56° C., 20 min) human blood group AB serum. Cultures were maintained in tissue culture flasks (Corning, N.Y.) at 37° C. under an atmosphere of 1% 2, 5% CO2 in N2. P. falciparum cultures containing approximately 3.0:% parasitaemia were adjusted to 1×10^8 erythrocytes/ml. To 50 μl of the parasite-erythrocyte culture (5×10^6 erythrocytes) in wells of 96-well microdilution plates wvas added 50 μl of the designated concentration of fatty acid or equivalent amounts of solutions or media. The treated cultures were incubated at 37° C. for 4 h and then pulsed with 50 μl (2.5 μCi) of ^3H-hypoxanthine. After a further 18 h incubation the parasites-erythrocytes were harvested onto glass fibre filter papers using a cell harvester. The amount of radioactivity incorporated was measured in a β-counter. The results have been expressed as % inhibition of parasite growth i.e. the dpm in the fatty acid diluent−dpm in the fatty acid treated cultures/dpm in diluent×100.

[3] = target: T2, 12-LO (Sus scrofa, UniProt P16469); assay: 12-LO catalysed oxidation of the nitro compounds (substrate test); format: biochemical, porcine; conditions: pH 7.4 buffer, UV 234 nm
T2 construct: purchased Cayman Chemical Company
T2 sequence (P16469 1-663): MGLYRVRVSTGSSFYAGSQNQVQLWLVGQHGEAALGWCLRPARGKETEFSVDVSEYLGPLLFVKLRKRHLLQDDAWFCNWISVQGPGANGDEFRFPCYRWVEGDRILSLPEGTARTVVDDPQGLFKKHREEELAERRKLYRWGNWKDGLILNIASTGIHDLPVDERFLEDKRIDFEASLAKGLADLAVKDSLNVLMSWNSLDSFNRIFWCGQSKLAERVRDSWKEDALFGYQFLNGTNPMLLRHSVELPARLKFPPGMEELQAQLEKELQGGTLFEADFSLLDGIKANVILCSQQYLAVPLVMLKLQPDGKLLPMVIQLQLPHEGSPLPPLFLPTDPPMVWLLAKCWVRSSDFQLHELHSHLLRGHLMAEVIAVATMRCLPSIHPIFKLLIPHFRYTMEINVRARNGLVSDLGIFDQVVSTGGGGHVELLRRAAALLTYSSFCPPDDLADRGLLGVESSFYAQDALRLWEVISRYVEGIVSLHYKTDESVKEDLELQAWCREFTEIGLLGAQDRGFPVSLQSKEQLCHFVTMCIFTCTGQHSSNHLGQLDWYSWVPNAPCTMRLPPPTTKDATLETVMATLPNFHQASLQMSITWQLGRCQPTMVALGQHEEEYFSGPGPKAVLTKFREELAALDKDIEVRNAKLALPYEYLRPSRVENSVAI
Protocol: as §1

[4] = system: human neutrophils; assay: Neutrophil lucigenin dependent chemiluminescence (superoxide production); format: cell-based; conditions: 20 μM
Protocol: The activation of human neutrophils by nitro compounds was assessed by the ability to stimulate superoxide production (chemiluminescence response) and release of lysosomal enzymes from specific and azurophilic granules. Neutrophils were prepared from whole blood taken from normal healthy volunteers by the rapid-single step procedure^(41). Briefly, blood anticoagulated with heparin was carefully layered on a hypaque-ficoll medium of 1.114 g/ml and centrifuged in swing-out-buckets at 200 g/30 min. The leukocytes were resolved into two bands and the erythrocytes sedimented at the bottom of the tube. The second leukocyte band approximately 0.7 cm from the mononuclear cell containing band at the interface contained neutrophils of >98% purity and >99% viability (trypan blue dye exclusion criteria). The neutrophils were carefully harvested with a pasteur pipette, and washed and resuspended in tissue culture medium. The respiratory burst response of neutrophils was assessed by measuring superoxide production by the lucigenin dependent chemiluminescence assay essentially as described previously^(42). Briefly, 1×10^6 neutrophils (100 μl) in HBSS were treated with the nitro analogues of fatty acids (100 μl), then lucigenin was added and the volume made up. FIG. 7 illustrates the effects of Lx compounds on the neutrophil chemiluminescence reponse. Results are the means ±SEM of 4-12 experiments. […]

[5] = system: 5-LO; assay: 5-LO catalysed oxidation of the nitro compounds (substrate test); format: biochemical; conditions: pH 6.3 buffer, UV 234 nm
Protocol: as §1

[6] = listed as (all-Z)-4-nitrotricosa-8,11,14,17-tetraenoic acid

SMILES: CCCCC/C=C\C/C=C\C/C=C\C/C=C\CCCC(CCC(=O)O)[N+](=O)[O-] (stereo not shown) [Lx7, (a11-Z)-4-Nitrotricosa-8,11,14,17-tetraenoic acid]
- Vmax for 15-LO catalysed oxidation of the compound ([1]; Lineweaver Burke): Vmax = 24.48 μM/min
- Vmax for 15-LO catalysed oxidation of the compound ([1]; Lineweaver Burke, listed as 6b): 24.48 µM/min
- Km ([1]; Lineweaver Burke, read-out: Km for 15-LO catalysed oxidation of the compound): 8.4 µM
- Substrate for 15-LO ([1]; listed as 6b): substrate
- Substrate for 15-LO [1, 6]: good substrate
- Antimalarial activity (in words) [2]: did not have appreciable antimalarial activity
- Substrate for 12-LO ([3]; listed as 6b): substrate
- Substrate for 12-LO [3, 6]: good substrate
- Neutrophil chemiluminescence response [4]: marginal compared to 20:4n-6 and 22:6n-3
- Substrate for 5-LO [5]: not for 5-LO

Source: patent publication US6924309B2 (Children, Youth and Women's Health Service Incorporated, priority 1999, dated 2005)
